# Target: T1, human ghrelin receptor (GRLN, growth hormone secretagogue receptor, hGHS-R1a) (Homo sapiens, UniProt Q92847)
# T1 construct: purchased PerkinElmer BioSignal #RBHGHSM, lot#1887; host or cells: HEK-293 cells, stably transfected (membranes)
# Assay: Competitive radioligand binding assay (ghrelin receptor), Method B1
# Conditions: not given
# Description: Multiscreen Harvest plates-GF/C (Millipore, #MAHFC1H60) • 4. […] Bottom seal (Millipore, #MATAH0P00) • 7. […] Binding Buffer: 25 mM Hepes (pH 7.4), 1 mM CaCl2, 5 mM MgCl2. 2.5 mM EDTA, 0.4% BSA
# Competition experiments were performed in a 300 μl filtration assay format. • 1. 220 μL of membranes diluted in binding buffer • 2. 40 μL of compound diluted in binding buffer • 3.
# Compounds were provided frozen on dry ice at a stock concentration of 10 mM diluted in 100% DMSO and stored at −80° C. until the day of testing. On the test day, compounds were allowed to thaw at rt overnight and then diluted in assay buffer according to the desired test concentrations. Under these conditions, the maximal final DMSO concentration in the assay was 0.1%.
# Plates were sealed with TopSeal-A, vortexed gently and incubated at rt for 30 min. The reaction was arrested by filtering samples through Multiscreen Harvest plates (pre-soaked in 0.5% polyethyleneimine) using a Tomtec Harvester, washed 9 times with 500 μL of cold 50 mM Tris-HCl (pH 7.4, 4° C.), and then plates were air-dried in a fumehood for 30 min. A bottom seal was applied to the plates prior to the addition of 25 μL of MicroScint-0 to each well. Plates were than sealed with TopSeal-A and counted for 30 sec per well on a TopCount Microplate Scintillation and Luminescence Counter (PerkinElmer) using a count delay of 60 sec. Results were expressed as counts per minute (cpm).
# Data were analyzed by GraphPad Prism (GraphPad Software, San Diego, Calif.) using a variable slope non-linear regression analysis. […] Dmax values were calculated using the following formula: […]
# T1 sequence (Q92847 whole entry): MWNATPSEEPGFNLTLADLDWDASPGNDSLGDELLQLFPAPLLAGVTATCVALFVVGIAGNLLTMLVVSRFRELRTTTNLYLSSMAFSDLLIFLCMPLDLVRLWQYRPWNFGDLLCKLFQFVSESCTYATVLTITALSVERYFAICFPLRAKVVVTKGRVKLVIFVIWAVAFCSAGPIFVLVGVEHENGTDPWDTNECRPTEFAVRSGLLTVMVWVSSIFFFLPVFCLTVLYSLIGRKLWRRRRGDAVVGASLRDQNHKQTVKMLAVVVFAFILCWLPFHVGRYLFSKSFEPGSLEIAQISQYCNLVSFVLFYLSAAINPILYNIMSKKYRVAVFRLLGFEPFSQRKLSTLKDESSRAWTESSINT
Structure (SMILES),IC50,Ki
CCC(C)[C@@H]1NCCOc2ccccc2CC[C@@H](C)NC(=O)[C@@H](Cc2ccccc2)NC(=O)[C@H](C(C)O)N(C)C1=O (stereo partly drawn) [Compound 1342],1 to 10 nM,1 to 10 nM
CC[C@H](C)[C@@H]1NC/C=C/c2ccccc2CCCNC(=O)[C@@H](Cc2ccccc2)NC(=O)[C@H]([C@H](C)O)N(C)C1=O [Compound 1346],> 500 nM,100 to 500 nM

# Same assay, conditions: Ghrelin receptor binding activity, Method B1
Structure (SMILES),Ki,IC50
CCC(C)[C@@H]1NC[C@@H](C)Oc2ccccc2CCCNC(=O)[C@@H](Cc2ccccc2)NC(=O)[C@H](C(C)O)N(C)C1=O (stereo partly drawn) [Compound 1301],100 to 500 nM,–
CC(O)[C@H]1C(=O)N[C@H](Cc2ccccc2)C(=O)NC/C=C/c2ccccc2OCCN[C@@H](CO)C(=O)N1C (stereo partly drawn) [Compound 1305],> 500 nM,–
CCC(C)[C@@H]1NCCOc2cccnc2CCCNC(=O)[C@@H](Cc2ccccc2)NC(=O)[C@H](C(C)O)N(C)C1=O (stereo partly drawn) [Compound 1311],> 500 nM,–
CCC(C)[C@@H]1NC[C@@H](C)Oc2ccccc2/C=C/CNC(=O)[C@@H](Cc2ccccc2)NC(=O)[C@H](C(C)O)N(C)C1=O (stereo partly drawn) [Compound 1313],10 to 100 nM,10 to 100 nM
CCC(C)[C@@H]1NC[C@H](C)Oc2ccccc2/C=C/CNC(=O)[C@@H](Cc2ccccc2)NC(=O)[C@H](C(C)O)N(C)C1=O (stereo partly drawn) [Compound 1314],100 to 500 nM,100 to 500 nM
CC(O)[C@H]1C(=O)N[C@H](Cc2ccccc2)C(=O)NC/C=C/c2ccccc2OCCN[C@@H](C2CCCC2)C(=O)N1C (stereo partly drawn) [Compound 1320],10 to 100 nM,10 to 100 nM
CCC(C)[C@H]1C(=O)N(C)[C@@H](C(C)O)C(=O)N[C@H](Cc2ccccc2)C(=O)NC/C=C/c2ccccc2OCCN1C (stereo partly drawn) [Compound 1323],10 to 100 nM,–
CCC(C)[C@@H]1NCCOc2ccccc2/C=C/CNC(=O)[C@@H](Cc2ccc(N)cc2)NC(=O)[C@H](C(C)O)N(C)C1=O (stereo partly drawn) [Compound 1328],10 to 100 nM,100 to 500 nM
CCC(C)[C@@H]1NCCOc2ccccc2/C=C/CNC(=O)[C@@H](Cc2c[nH]cn2)NC(=O)[C@H](C(C)O)N(C)C1=O (stereo partly drawn) [Compound 1329],10 to 100 nM,100 to 500 nM
CCC(C)[C@@H]1NCCOc2ccccc2/C=C/CNC(=O)[C@@H](Cc2ccncc2)NC(=O)[C@H](C(C)O)N(C)C1=O (stereo partly drawn) [Compound 1330],10 to 100 nM,100 to 500 nM
CCC(C)[C@@H]1NCCOc2ccccc2/C=C/CNC(=O)[C@@H](Cc2ccco2)NC(=O)[C@H](C(C)O)N(C)C1=O (stereo partly drawn) [Compound 1331],10 to 100 nM,10 to 100 nM
CCC(C)[C@@H]1NCCOc2ccccc2C[C@@H](O)CNC(=O)[C@@H](Cc2ccccc2)NC(=O)[C@H](C(C)O)N(C)C1=O (stereo partly drawn) [Compound 1339],100 to 500 nM,100 to 500 nM
CCC(C)[C@@H]1NCCOc2cc(F)ccc2CC[C@H](C)NC(=O)[C@@H](Cc2ccccc2)NC(=O)[C@H](C(C)O)N(C)C1=O (stereo partly drawn) [Compound 1344],10 to 100 nM,–
CC(O)[C@H]1C(=O)N[C@H](Cc2ccccc2)C(=O)N[C@@H](C)CCc2ccccc2OCCN[C@@H](C2CC2)C(=O)N1C (stereo partly drawn) [Compound 1345],10 to 100 nM,100 to 500 nM
CCC(C)[C@@H]1N[C@H](C)COc2ccccc2CCCNC(=O)[C@@H](Cc2ccccc2)NC(=O)[C@H](C(C)O)N(C)C1=O (stereo partly drawn) [Compound 1347],100 to 500 nM,100 to 500 nM
CCC(C)[C@@H]1N[C@@H](C)COc2ccccc2CCCNC(=O)[C@@H](Cc2ccccc2)NC(=O)[C@H](C(C)O)N(C)C1=O (stereo partly drawn) [Compound 1348],100 to 500 nM,> 500 nM
CCC(C)[C@@H]1NCCOc2ccccc2CCC(C(F)(F)F)NC(=O)[C@@H](Cc2ccccc2)NC(=O)[C@H](C(C)O)N(C)C1=O (stereo partly drawn) [Compound 1349],10 to 100 nM,–
CC(C)C1NCCOc2cc(F)ccc2C=CCNC(=O)C(C(C)c2ccccc2)NC(=O)C(C(C)O)N(C)C1=O (stereo not drawn) [Compound 1689],–,10 to 100 nM
CCCC1CCc2ccccc2OCCNC(C(C)C)C(=O)N(C)C(C(C)O)C(=O)NC(Cc2ccccc2)C(=O)N1 (stereo not drawn) [Compound 1694],–,> 500 nM
CC(C)C1CCc2ccccc2OCCNC(C(C)C)C(=O)N(C)C(C(C)O)C(=O)NC(Cc2ccccc2)C(=O)N1 (stereo not drawn) [Compound 1695],–,100 to 500 nM
CCCC1CCc2ccccc2OCCNC(C(C)C)C(=O)N(C)C(C(C)O)C(=O)NC(Cc2cccc(F)c2)C(=O)N1 (stereo not drawn) [Compound 1696],–,> 500 nM
CCCC1CCc2ccccc2OCCNC(C(C)C)C(=O)N(C)C(C(C)O)C(=O)NC(Cc2c[nH]c3ccccc23)C(=O)N1 (stereo not drawn) [Compound 1697],–,100 to 500 nM
CC(C)C1CCc2ccccc2OCCNC(C(C)C)C(=O)N(C)C(C(C)O)C(=O)NC(Cc2c[nH]c3ccccc23)C(=O)N1 (stereo not drawn) [Compound 1698],–,10 to 100 nM
CCC1CCc2ccc(F)cc2OC(C)CNC(C2(C)CC2)C(=O)N(C)C(C(C)O)C(=O)NC(Cc2c[nH]c3ccccc23)C(=O)N1 (stereo not drawn) [Compound 1706],–,100 to 500 nM

Structure (SMILES),Ki,IC50
CC(C)[C@@H]1NCCOc2ccccc2CC[C@H](C(C)C)NC(=O)[C@@H](Cc2cccc(F)c2)NC(=O)[C@H](C(C)O)N(C)C1=O (stereo partly drawn) [Compound 1708],–,100 to 500 nM
CC[C@@H]1C#Cc2ccc(Cl)cc2OCCN[C@@H](C(C)C)C(=O)N(C)[C@@H](C(C)O)C(=O)N[C@H](Cc2c[nH]c3ccccc23)C(=O)N1 (stereo partly drawn) [Compound 1709],–,10 to 100 nM
CCC(C)[C@@H]1NCCO[C@H]2CCC[C@H]2CCCNC(=O)[C@@H](Cc2ccc(Cl)cc2)NC(=O)[C@H](C(C)O)N(C)C1=O (stereo partly drawn) [Compound 1714],–,1 to 10 nM
CCC(C)[C@@H]1NCCO[C@H]2CCCC[C@H]2CCCNC(=O)[C@@H](Cc2ccc(Cl)cc2)NC(=O)[C@H](C(C)O)N(C)C1=O (stereo partly drawn) [Compound 1715],–,1 to 10 nM
CC[C@@H]1CCc2ccc(F)cc2O[C@H](C)CN[C@@H](C2(C)CC2)C(=O)N(C)[C@@H](C(C)O)C(=O)N[C@H](Cc2cccc(F)c2)C(=O)N1 (stereo partly drawn) [Compound 1721],–,100 to 500 nM
CC[C@@H]1CCc2c(F)cccc2OCCN[C@@H](C(C)C)C(=O)N(C)[C@@H](C(C)O)C(=O)N[C@H](Cc2ccccc2)C(=O)N1 (stereo partly drawn) [Compound 1722],–,10 to 100 nM
CC[C@@H]1CCc2c(F)cccc2OCCN[C@@H](C(C)C)C(=O)N(C)[C@@H](C(C)O)C(=O)N[C@H](Cc2cccc(F)c2)C(=O)N1 (stereo partly drawn) [Compound 1724],–,10 to 100 nM
CC[C@@H]1CCc2ccc(OC)cc2OCCN[C@@H](C(C)C)C(=O)N(C)[C@@H](C(C)O)C(=O)N[C@H](Cc2c[nH]c3ccccc23)C(=O)N1 (stereo partly drawn) [Compound 1727],–,> 500 nM
CC(O)[C@H]1C(=O)N[C@H](Cc2ccc(Cl)cc2)C(=O)NC/C=C/c2ccccc2OCCN[C@@H](C2CC2)C(=O)N1C (stereo partly drawn) [Compound 1728],–,10 to 100 nM
CC(C)C[C@@H]1NCCOc2ccccc2/C=C/CNC(=O)[C@@H](Cc2ccc(Cl)cc2)NC(=O)[C@H](C(C)O)N(C)C1=O (stereo partly drawn) [Compound 1731],–,100 to 500 nM
CC(O)[C@H]1C(=O)N[C@H](Cc2ccc(Cl)cc2)C(=O)NC/C=C/c2ccccc2OCCN[C@@H](CC(C)(C)C)C(=O)N1C (stereo partly drawn) [Compound 1733],–,100 to 500 nM
CCC(C)C1NCCOc2ccccc2C=CCNC(=O)C(Cc2ccc(OC)cc2)NC(=O)C(C(C)O)N(C)C1=O (stereo not drawn) [Compound 1735],–,10 to 100 nM
CCC(C)C1NCCOc2ccccc2C=CCNC(=O)C(Cc2ccc(C)cc2)NC(=O)C(C(C)O)N(C)C1=O (stereo not drawn) [Compound 1736],–,10 to 100 nM
CC(O)[C@H]1C(=O)N[C@H](Cc2ccc(Cl)cc2)C(=O)N[C@@H](C)CCc2ccccc2O[C@H](C)CN[C@@H](C2CC2)C(=O)N1C (stereo partly drawn) [Compound 1741],–,> 500 nM
CC(O)[C@H]1C(=O)N[C@H](Cc2ccc(Cl)cc2)C(=O)N[C@H](C)CCc2ccccc2OCCN[C@@H](C2CCCCC2)C(=O)N1C (stereo partly drawn) [Compound 1744],–,> 500 nM
CC[C@@H]1CCc2ccccc2O[C@H](C)CN[C@@H](C2(C)CC2)C(=O)N(C)[C@@H](C(C)O)C(=O)N[C@H](Cc2c[nH]c3ccccc23)C(=O)N1 (stereo partly drawn) [Compound 1756],–,10 to 100 nM
CC[C@@H]1CCc2ccc(F)cc2OCCN[C@@H](CC(C)(C)C)C(=O)N(C)[C@@H](C(C)O)C(=O)N[C@H](Cc2c[nH]c3ccccc23)C(=O)N1 (stereo partly drawn) [Compound 1764],–,> 500 nM
CC1CCc2ccccc2OCCNC(C(C)(C)C)C(=O)N(C)C(C(C)O)C(=O)NC(Cc2ccc(Cl)cc2)C(=O)N1 (stereo not drawn) [Compound 1800],–,10 to 100 nM
CC(=O)OC(C)C1C(=O)NC(Cc2ccccc2)C(=O)NCC=Cc2ccccc2OCCNC(C(C)C)C(=O)N1C (stereo not drawn) [Compound 1841],–,> 500 nM
CCC(C)C1NCCOc2ccccc2C=CCNC(=O)C(Cc2ccc(Cl)cc2)NC(=O)C(C(C)OC(C)=O)N(C)C1=O (stereo not drawn) [Compound 1842],–,100 to 500 nM
CCC1CCc2ccc(C(F)(F)F)cc2OCCNC(C(C)C)C(=O)N(C)C(C(C)O)C(=O)NC(Cc2ccccc2)C(=O)N1 (stereo not drawn) [Compound 1846],–,100 to 500 nM
CCC1CCc2ccc(F)cc2OCCNC(C(C)C)C(=O)N(C)C(C(C)OC(C)=O)C(=O)NC(Cc2c[nH]c3ccccc23)C(=O)N1 (stereo not drawn) [Compound 1851],–,> 500 nM
CCC1CCc2ccc(F)cc2OC(C)CNC(CC)C(=O)N(C)C(C(C)O)C(=O)NC(Cc2ccccc2)C(=O)N1 (stereo not drawn) [Compound 1852],–,> 500 nM
CC[C@@H]1CCc2c(cccc2C(N)=O)OCCN[C@@H](C(C)C)C(=O)N(C)[C@@H](C(C)O)C(=O)N[C@H](Cc2ccccc2)C(=O)N1 (stereo partly drawn) [Compound 1864],–,> 500 nM

# — patent US20110105389A1 (priority 2009, published 2011)
